Laboratory results as given in US20050239654A1, “Synergistically acting herbicidal mixtures” (priority 2002, published 2005).

How the values were obtained:
Test in all cases: Herbicidal action, post-emergence treatment, greenhouse
Type in all cases: in vivo
Abutilon theophrasti = test system: Abutilon theophrasti
Description: (§1) The mixtures according to the invention were applied pre- or post-emergence (foliar treatment). The herbicidal compounds of component B and, if desired, of component C were applied in the formulation in which they are present as commercially available product.
(§2) The herbicidally active compounds of components A), B) and, if desired, C) were applied in succession or jointly, in the latter case in some cases as a tank mix and in some cases as a ready-mix, in the form of emulsions, aqueous solutions or suspensions, the vehicle being water (300-400 l/ha). In the case of the field trials, application was effected with the aid of a mobile plot sprayer.
(§3) The test period extended over 3 to 8 weeks, and the stands were also observed at later points in time.
(§4) Damage by the herbicidal compositions was evaluated with reference to a scale of 0% to 100 in comparison with untreated control plots. 0 means no damage and 100 means complete destruction of the plants.
(§5) In these examples, the value E at which only an additive effect of the individual active ingredients is to be expected was calculated by the method of S. R. Colby (Calculating synergistic and antagonistic responses of herbicide combinations, Weeds 15, 20 pp (1967)).
(§6) This was done using the formula [formula] where • X=Percentage of the herbicidal action of X at an application rate of x; • Y=Percentage of the herbicidal action of Y at an application rate of Y; • E=expected herbicidal action of X+Y at rates of application x+y (in %); or the formula [formula] where • X=Percentage of the herbicidal action of X at an application rate of x; • Y=Percentage of the herbicidal action of Y at an application rate of y; • Z=Percentage of the herbicidal action of Z at an application rate of z; • E=expected herbicidal action of X+Y+Z at rates of application x+y+z (in %)
(§7) If the value observed exceeds the value E calculated in accordance with Colby's formula, then synergism is present.

Amaranthus retroflexus = test system: Amaranthus retroflexus
Description: as §1, §2, §3, §4, §5, §6, §7

Avena fatua = test system: Avena fatua
Description: as §1, §2, §3, §4, §5, §6, §7

Commelina benghalensis = settings: Table 4, 3.91 g/ha ai
Description: as §1, §2, §3, §4, §5, §6, §7

Galium aparine = test system: Galium aparine
Description: as §1, §2, §3, §4, §5, §6, §7

Brachiaria plantaginea = test system: Brachiaria plantaginea
Description: as §1, §2, §3, §4, §5, §6, §7

Echinochloa crus-galli = test system: Echinochloa crus-galli
Description: as §1, §2, §3, §4, §5, §6, §7

Pharbitis purpurea = settings: Table 12, 62.5 g/ha ai
Description: as §1, §2, §3, §4, §5, §6, §7

Polygonum persicaria = test system: Polygonum persicaria
Description: as §1, §2, §3, §4, §5, §6, §7

Cc1c(C(=O)c2cnn(C)c2O)ccc(S(C)(=O)=O)c1C1=NOCC1 [Ia.29, 4-[2-methyl-3-(4,5-dihydroisoxazol-3-yl)-4-methylsulfonyl-benzoyl]-1-methyl-5-hydroxy-1H-pyrazole]
Abutilon theophrasti Damage (Abutilon theophrasti; Table 3, 0.98 g/ha ai): 30%
Abutilon theophrasti Damage (Abutilon theophrasti; Table 9, 7.81 g/ha ai): 85%
Amaranthus retroflexus Damage (Amaranthus retroflexus; Table 5, 0.98 g/ha ai): 60%
Amaranthus retroflexus Damage (Amaranthus retroflexus; Table 7, 0.98 g/ha ai): 60%
Avena fatua Damage (Avena fatua; Table 5, 0.98 g/ha ai): 0%
Avena fatua Damage (Avena fatua; Table 6, 1.95 g/ha ai): 10%
Commelina benghalensis Damage (Commelina benghalensis): 50%
Galium aparine Damage (Galium aparine; Table 7, 0.98 g/ha ai): 20%
Galium aparine Damage (Galium aparine; Table 8, 1.95 g/ha ai): 30%

CCNc1nc(Cl)nc(NC(C)C)n1 [atrazine]
Abutilon theophrasti Damage (Abutilon theophrasti; Table 9, 125 g/ha ai): 30%
Abutilon theophrasti Damage (Abutilon theophrasti; Table 14, 125 g/ha ai): 30%
Amaranthus retroflexus Damage (Amaranthus retroflexus; Table 7, 15.6 g/ha ai): 40%
Brachiaria plantaginea Damage (Brachiaria plantaginea; Table 10, 125 g/ha ai): 25%
Brachiaria plantaginea Damage (Brachiaria plantaginea; Table 16, 62.5 g/ha ai): 20%
Echinochloa crus-galli Damage (Echinochloa crus-galli; Table 10, 125 g/ha ai): 30%
Echinochloa crus-galli Damage (Echinochloa crus-galli; Table 12, 62.5 g/ha ai): 20%
Echinochloa crus-galli Damage (Echinochloa crus-galli; Table 14, 125 g/ha ai): 30%
Echinochloa crus-galli Damage (Echinochloa crus-galli; Table 16, 62.5 g/ha ai): 20%
Galium aparine Damage (Galium aparine; Table 7, 15.6 g/ha ai): 0%
Galium aparine Damage (Galium aparine; Table 8, 31.25 g/ha ai): 20%
Galium aparine Damage (Galium aparine; Table 11, 125 g/ha ai): 60%
Galium aparine Damage (Galium aparine; Table 15, 125 g/ha ai): 60%
Pharbitis purpurea Damage (Pharbitis purpurea): 80%
Polygonum persicaria Damage (Polygonum persicaria; Table 11, 125 g/ha ai): 60%
Polygonum persicaria Damage (Polygonum persicaria; Table 13, 62.5 g/ha ai): 40%
Polygonum persicaria Damage (Polygonum persicaria; Table 17, 62.5 g/ha ai): 40%
